The values that follow come from paper PMC13313556, “Development and characterization of triazole-based WDR5 inhibitors for the treatment of glioblastoma” (JCI Insight, 2026).

For data set [1], the target named is WDR5 (Homo sapiens, UniProt P61964). Put plainly: WDR5 TR-FRET binding assay (displacement of labeled WIN-site peptide). More on the design: human WDR5 residues Ser22-Cys334 were codon optimized for E. coli; made in house; host or cells: E. coli T7 Express lysY/Iq (New England Biolabs), pET27 plasmid. Here is the method:
Recombinant human WDR5 was cloned, expressed, and purified as previously described ([37]). Briefly, human WDR5 residues Ser22-Cys334 were codon optimized for E. coli and cloned into a pET27 plasmid downstream of a SUMO-protease cleavable NT-His6-SUMO fusion. […] Induced cultures were pelleted; resuspended in 1X PBS pH 7.4, 300 mM NaCl, 20 mM imidazole, 5 mM β-Me, and 10% glycerol; and lysed via sonication. […] His-SUMO-WDR5 used in the TR-FRET assay was further purified via size exclusion chromatography using 1X PBS pH 7.4, 300 mM NaCl, 5 mM β-Me running buffer, concentrated to 1–2 mg/mL, aliquoted, and froze at –80°C for storage. Tag free WDR5 used for crystallography was dialyzed overnight with SUMO protease and passed over an NiNTA column to remove the His6-SUMO tag. Tag free WDR5 was further purified via size exclusion chromatography using 20 mM HEPES pH 7.0, 250 mM NaCl, and 5 mM DTT; concentrated to 10 mg/mL; aliquoted; and frozen at –80°C for storage.
Inhibitor Ki values were measured using a previously published competitive TR-FRET assay ([37]). […] The reported Ki values were calculated from at least 3 biological replicates completed in technical quadruplicate.

A short description of data set [2]: Microsomal intrinsic clearance, rat. Type of data set: in vitro ADME. To be noted: for CLint scaled at 1 µM: pooled liver microsomes, rat microsomes; for Pred CLhep (r): scaled predicted hepatic clearance, rat. Here is the method:
SUPPLEMENTAL DMPK METHODS
All in vitro DMPK screening assays were performed at Q2 Solutions, Inc. (Indianapolis,
IN, USA). Microsomal Intrinsic Clearance: Test compounds (1 µM) were incubated
with 1 mg/mL of pooled liver microsomes in phosphate buffer at 37 °C. Samples were
taken at 0, 5, 10, 15, 30 and 45 min and analyzed by LC-MS. Testosterone was used as
the positive control. Two replicates were obtained and average CLint values are reported. […]

Data set [3] relates to L2 CSCs. Put plainly: 7-day CTG viability assay (GI50, cross-titrations, irradiation) in L2. Type of data set: cell-based, human. Conditions: for GI50: Homo sapiens. Here is the method: (§1) For GI50 determination, compounds were stamped in technical triplicate, while for synergy cross-titrations dose-response matrices were prepared in technical duplicate. Different CSC lines, grown in suspension as spheroids, were split with Accutase and seeded directly on top of the prestamped compounds (50 μL of NBMc and 700 cells/well). The outer 4 rows (A,B and O,P row IDs) and 4 columns (1,2 and 23,24 column IDs) were filled with 80 μL of PBS to minimize evaporation. Cells were incubated with compounds for 7 days at 37°C/5% CO2 prior to the addition of 25 μL/well Cell-Titer Glo (Promega) and luminescence quantification on a Revvity EnVision plate reader. […] For the cross-titrations of 2 compounds, synergy scores were calculated using the MuSyC webserver ([79]). […]
(§2) antagonist (p53 activator) RG7112 following either 0 Gy or 2 Gy irradiation. Mean values are presented from a single biological replicate conducted in technical triplicate. Follow- […]
(§3) Cell viability was quantified as described in the Materials and Methods four days post-irradiation (seven days total). The

The test system of data set [4] is DI318 CSCs. Put plainly: 7-day CTG viability assay (GI50, cross-titrations, irradiation) in DI318. Format: cell-based. Conditions: Homo sapiens. Here is the method: as §1, §2, §3
Data set [5] relates to 3832 CSCs. Put plainly: 7-day CTG viability assay (GI50, cross-titrations, irradiation) in 3832. Format: cell-based, human. Here is the method: as §1, §2, §3
A short description of data set [6]: In vivo intraperitoneal plasma:brain level (PBL) studies. Set-up: species or system mice. Conditions: for Kp: male. The protocol: In Vivo Intraperitoneal Plasma:Brain Level (PBL) Studies
Core (RMPC) at the Vanderbilt University Medical Center (VUMC) Metabolic Physiology Shared Resource Core (MPSR). The studies were performed according to guidelines […]
approved by the Institutional Animal Care and Use Committee (IACUC) of VUMC following the guidance of the Association for Assessment and Accreditation of Laboratory Animal Care (AAALAC). Male CD-1 mice (Charles River Laboratories, Wilmington, MA) were overnight fasted on the evening prior to study. On the morning of study mice were weighed and allowed to acclimate to the room for at least 30 minutes prior to dosing.
Food was returned 3 hr after intraperitoneal dosing. At time zero IP of test article was given (20% β-HPCD, 1-10 mg/mL with addition of 1N HCl per molar equivalent of test article, N=8 mice, two per timepoint). At 0.5, 1, 3, and 6 h post-dose, mice were placed into a plane of anesthesia using Isoflurane. A terminal blood sample was collected via cardiac puncture followed by immediate euthanasia and brain collection. Brain was washed with cold PBS or Saline, blotted dry on a piece of gauze, weighed, and flash frozen in liquid nitrogen. Whole blood was centrifuged at 5000 x g for 5 minutes and plasma was removed into a fresh tube for storage. All samples were stored at -80 °C until shipment on dry ice for bioanalysis at Q2 Solutions. […]
conducted at Medicilon Inc. DMPK (CRO, Shanghai) using a similar protocol as above using modified timepoints (5 min, 15 min, 30 min, 1, 3, and 8 h), male ICR mice, and a […]
cyclodextrin). The blood was taken via submandibular vein or other suitable vein, 0.03 mL/time point. Samples were placed in tubes containing K2-EDTA and stored on ice until centrifuged. The blood samples were centrifuged at 6800 x g for 6 minutes at 2-8°C within 1h after collection and stored frozen at -80°C. After blood sample collection, the brain was removed, rinsed with saline, dried with filter paper, placed into labeled EP tubes (1 tube/tissue/animal/time point, and frozen at -80°C prior to bioanalysis. The analytical […]
results were validated using a calibration curve to lower limit of quantification of 2 ng/mL for parent analyte with tolbutamide as an internal standard. […]

[7] abbreviates: L2, 0 Gy, read-out: log(GI50) (converted).
[8] abbreviates: L2, 7-day CTG, pGI50 = −log10[GI50(M)], read-out: pGI50 (converted).
Setting [9] is: DI318 + RAD (2 Gy), read-out: log(GI50) (converted).
The mark [10] stands for this setting: […], DI318, 7-day CTG, pGI50 = −log10[GI50(M)], read-out: pGI50 (converted).
[11] abbreviates: Homo sapiens, 3832 + RAD (2 Gy), read-out: log(GI50) (converted).
Where [12] appears, read: Homo sapiens, […], 3832, 7-day CTG, pGI50 = −log10[GI50(M)], read-out: pGI50 (converted).
The mark [13] stands for this setting: CD-1 (C3TD343), ICR (C3TD078), mouse, brain, intraperitoneal, 100 mg/kg, 100 mg/kg i.p., mice, read-out: P:B.
Where [14] appears, read: Homo sapiens, 3832, 0 Gy, read-out: log(GI50) (converted).

Like-named read-outs stand apart in the source and are kept apart here. Bounds are passed on as bounds.

In data set [1], `COc1cc(Cn2nnc3c2CCc2c(-c4cn(C)nc4C(F)(F)F)cc(Cn4ccnc4C)cc2-3)cc(OC)c1` [C3TD078] had a Ki of 0.03 ± 0.002 nM. The same molecule had a CLint scaled at 1 µM in data set [2] of 316 mL/min/kg. In data set [2], the “Pred CLhep (r)” value was 63.1 mL/min/kg. Besides, the GI50 is 5.01e-06 M in data set [3] (setting [7]); 3.98e-06 M in data set [3] (setting [8]); 6.31e-07 M in data set [4] (setting [9]); 2e-06 M in data set [4] (setting [10]); 1.26e-06 M in data set [5] (setting [11]); 2e-06 M in data set [5] (setting [12]). Besides, in data set [6] (setting [13]), the Kp is less than 0.05.
For the molecule `COc1cc(Cn2nnc3c2CCc2c-3cc(Cn3ccnc3C)cc2C2CC2)ccc1F` [C3TD343], the affinity in data set [1], expressed as Ki, was 5.9 ± 0.3 nM. The molecule also had a CLint scaled at 1 µM in data set [2] of 378 mL/min/kg. Also, the “Pred CLhep (r)” value in data set [2] is on record as 64.1 mL/min/kg. Moreover, the GI50 in data set [3] (L2 + RAD (2 Gy), read-out: log(GI50) (converted)) was 7.94e-06 M; in data set [3] (setting [8]), 6.31e-06 M; in data set [4] (setting [9]) it was 6.31e-06 M; in data set [4] (setting [10]), 5.01e-06 M; in data set [5] (setting [11]), 3.16e-06 M; in data set [5] (setting [14]), 3.16e-06 M. Moreover, the GI50 in data set [5] (setting [12]) is 2.51e-06 M. For the same molecule, the “total brain AUC” value in data set [6] (100 mg/kg i.p., mice) was determined as 2.9 µM·h. For the same molecule, in data set [6] (100 mg/kg i.p., mice), the “total brain Cmax” value was determined as 2.4 µM. Also, in data set [6] (i.p., mice), the “duration of brain exposure” value is “less than 4 hours”. Besides, the Kp in data set [6] (setting [13]) was 0.25.
In data set [1], `COc1cc(CN2CCc3c(cc(Cn4ccn(C)c4=N)cc3-c3ccc(F)cc3C)C2=O)cc(OC)c1` [C16, reference compound] returned a Ki of 0.03 ± 0.01 nM. In addition, the CLint scaled at 1 µM in data set [2] is less than 9.2 mL/min/kg. For the same molecule, the “Pred CLhep (r)” value in data set [2] is recorded as less than 14.7 mL/min/kg. The GI50 in data set [3] (setting [7]) is 2e-06 M; in data set [3] (setting [8]), 3.98e-06 M; in data set [4] (setting [9]), 7.94e-07 M; in data set [4] (DI318, 0 Gy, read-out: log(GI50) (converted)), 2e-06 M; in data set [4] (setting [10]), 1.58e-06 M; in data set [5] (setting [14]) it was 1e-06 M. For the same molecule, in data set [5] (Homo sapiens, 3832, 7-day CTG, pGI50 = −log10[GI50(M)], read-out: pGI50 (converted)), the GI50 is 8.32e-07 M. Also, the “log(GI50)” value in data set [3] (L2 + RAD (2 Gy)) was -5.7 M; in data set [5] (3832 + RAD (2 Gy)) it was -6.0 M. For the same molecule, the Cmax brain in data set [6] (10 mg/kg IP, male mice) was 0.102 µM. Besides, the AUC brain in data set [6] (10 mg/kg IP, male mice, 6 hrs interval) was 0.357 µM·h. The Tmax turned out to be 30 min in data set [6] (CD-1, mouse, brain, 10 mg/kg IP, male mice, read-out: Tmax brain) and 30 min in data set [6] (CD-1, mouse, plasma, 10 mg/kg IP, male mice, read-out: Tmax plasma). The Cmax in data set [6] (CD-1, mouse, plasma, 10 mg/kg IP, male mice) was determined as 14.2 µM. In data set [6] (CD-1, mouse, plasma, 10 mg/kg IP, male mice, 6 hrs interval), the AUC is 11.9 µM·h. The Kp in data set [6] (CD-1, mouse, brain, ip, 10 mg/kg, C16 10 mg/kg IP, male mice, read-out: brain/plasma ratio P:B (AUC)) is less than 0.05.
